Drawing on BindingDB's records for doi:10.1111/j.1476-5381.1995.tb15071.x (Vrije Universiteit, 1995), this text covers Ki for one compound.

The structures appear in SMILES notation.

For the test, the target named is Sodium-dependent serotonin transporter (Cavia porcellus, UniProt O35899).
Chain of Sodium-dependent serotonin transporter (O35899 whole entry): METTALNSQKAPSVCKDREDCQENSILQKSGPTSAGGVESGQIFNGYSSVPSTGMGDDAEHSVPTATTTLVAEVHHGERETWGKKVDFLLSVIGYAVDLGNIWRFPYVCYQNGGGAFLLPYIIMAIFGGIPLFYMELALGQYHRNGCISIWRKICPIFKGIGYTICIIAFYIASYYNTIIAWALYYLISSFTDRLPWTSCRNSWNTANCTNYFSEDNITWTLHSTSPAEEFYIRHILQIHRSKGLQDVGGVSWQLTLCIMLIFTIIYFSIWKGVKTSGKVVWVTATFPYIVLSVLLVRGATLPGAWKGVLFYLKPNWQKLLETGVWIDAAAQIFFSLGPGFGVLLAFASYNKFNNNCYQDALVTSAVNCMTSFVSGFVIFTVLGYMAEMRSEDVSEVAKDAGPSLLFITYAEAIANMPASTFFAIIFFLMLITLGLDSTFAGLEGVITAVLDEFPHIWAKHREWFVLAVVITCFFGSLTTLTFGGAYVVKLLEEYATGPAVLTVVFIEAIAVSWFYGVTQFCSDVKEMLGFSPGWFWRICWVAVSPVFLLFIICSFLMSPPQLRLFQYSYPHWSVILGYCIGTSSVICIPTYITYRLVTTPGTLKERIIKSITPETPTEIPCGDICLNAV

As to `S=C(NC1CCCCC1)N1CCC(c2cnc[nH]2)CC1`, the Ki was above 10 µM.
